In US11203571B2, “Sulfonamides as modulators of sodium channels” (VERTEX PHARMACEUTICALS INCORPORATED, priority 2013, dated 2021):

How the values were obtained:
human Nav1.8 = human Nav1.8 (Homo sapiens (Human), UniProt Q9Y5Y9); test: E-VIPR optical membrane potential assay with electrical stimulation; format: cell-based; conditions: HEK cells expressing human Nav1.8
Text: E-VIPR Optical Membrane Potential Assay Method with Electrical Stimulation
Sodium channels are voltage-dependent proteins that can be activated by inducing membrane voltage changes by applying electric fields. The electrical stimulation instrument and methods of use are described in Ion Channel Assay Methods PCT/US01/21652, herein incorporated by reference and are referred to as E-VIPR. The instrument comprises a microtiter plate handler, an optical system for exciting the coumarin dye while simultaneously recording the coumarin and oxonol emissions, a waveform generator, a current- or voltage-controlled amplifier, and a device for inserting electrodes in well. Under integrated computer control, this instrument passes user-programmed electrical stimulus protocols to cells within the wells of the microtiter plate.
24 hours before the assay on E-VIPR, HEK cells expressing human Nav1.8 were seeded in 384-well poly-lysine coated plates at 15,000-20,000 cells per well. HEK cells were grown in media (exact composition is specific to each cell type and NaV subtype) supplemented with 10% FBS (Fetal Bovine Serum, qualified; GibcoBRL #16140-071) and 1% Pen-Strep (Penicillin-Streptomycin; GibcoBRL #15140-122). Cells were grown in vented cap flasks, in 90% humidity and 5% CO2.
• 100 mg/mL Pluronic F-127 (Sigma #P2443), in dry DMSO • Compound Plates: 384-well round bottom plate, e.g. Corning 384-well Polypropylene Round Bottom #3656 • Cell Plates: 384-well tissue culture treated plate, e.g. Greiner #781091-1B • 10 mM DiSBAC6(3) (Aurora #00-100-010) in dry DMSO • 10 mM CC2-DMPE (Aurora #00-100-008) in dry DMSO • 200 mM ABSC1 in H20
Bath1 buffer: Glucose 10 mM (1.8 g/L), Magnesium Chloride (Anhydrous), 1 mM (0.095 g/L), Calcium Chloride, 2 mM (0.222 g/L), HEPES 10 mM (2.38 g/L), Potassium Chloride, 4.5 mM (0.335 g/L), Sodium Chloride 160 mM (9.35 g/L).
Hexyl Dye Solution: Bath1 Buffer+0.5% β-cyclodextrin (make this prior to use, Sigma #C4767), 8 μM CC2-DMPE+2.5 μM DiSBAC6(3). To make the solution Added volume of 10% Pluronic F127 stock equal to volumes of CC2-DMPE+DiSBAC6(3). The order of preparation was first mix Pluronic and CC2-DMPE, then added DiSBAC6(3) while vortexing, then added Bath1+β-Cyclodextrin.
1) Pre-spotted compounds (in neat DMSO) into compound plates. Vehicle control (neat DMSO), the positive control (20 mM DMSO stock tetracaine, 125 μM final in assay) and test compounds were added to each well at 160× desired final concentration in neat DMSO. Final compound plate volume was 80 μL (80-fold intermediate dilution from 1 μL DMSO spot; 160-fold final dilution after transfer to cell plate). Final DMSO concentration for all wells in assay was 0.625%.
2) Prepared Hexyl Dye Solution.
3) Prepared cell plates. On the day of the assay, medium was aspirated and cells were washed three times with 100 μL of Bath1 Solution, maintaining 25 μL residual volume in each well.
4) Dispensed 25 μL per well of Hexyl Dye Solution into cell plates. Incubated for 20-35 minutes at room temp or ambient conditions.
5) Dispensed 80 μL per well of Bath1 into compound plates. Acid Yellow-17 (1 mM) was added and Potassium Chloride was altered from 4.5 to 20 mM depending on the NaV subtype and assay sensitivity.
6) Washed cell plates three times with 100 μL per well of Bath1, leaving 25 μL of residual volume. Then transferred 25 uL per well from Compound Plates to Cell Plates. Incubated for 20-35 minutes at room temp/ambient condition.
7) Read Plate on E-VIPR. Used the current-controlled amplifier to deliver stimulation wave pulses for 10 seconds and a scan rate of 200 Hz. A pre-stimulus recording was performed for 0.5 seconds to obtain the un-stimulated intensities baseline. The stimulatory waveform was followed by 0.5 seconds of post-stimulation recording to examine the relaxation to the resting state.
Data was analyzed and reported as normalized ratios of emission intensities measured in the 460 nm and 580 nm channels. […]

[1] = Human liver microsome assay; format: in vitro ADME; conditions: 1 uM substrate, 0.5 mg/mL liver microsome, 2 mM NADPH, 37° C., referenced against time zero control
Description: Human Liver Microsome Assay Protocol
Liver microsomal stability data were generated as follows. Substrates were incubated at 37° C. and shaken for 30 minutes in a phosphate buffered solution with human liver microsomes and the cofactor NADPH. A time zero control was similarly prepared, however with NADPH excluded. The final incubation concentrations were 1 uM substrate (0.2% DMSO), 0.5 mg/mL liver microsome, 2 mM NADPH, and 0.1 M phosphate. Reactions were quenched and proteins precipitated with the addition of 2 volume equivalents of ice cold acetonitrile containing an internal standard. Following a centrifugation step, aliquots from the quenched incubations were further diluted with 4 volume equivalents of a 50% aqueous methanol solution and then subjected to LC/MS/MS analysis for quantitation of parent substrate. Microsome stability values were calculated as the percent of substrate remaining after 30 minutes referenced against the time zero control.

human Nav1.8, sequence (Q9Y5Y9 whole entry): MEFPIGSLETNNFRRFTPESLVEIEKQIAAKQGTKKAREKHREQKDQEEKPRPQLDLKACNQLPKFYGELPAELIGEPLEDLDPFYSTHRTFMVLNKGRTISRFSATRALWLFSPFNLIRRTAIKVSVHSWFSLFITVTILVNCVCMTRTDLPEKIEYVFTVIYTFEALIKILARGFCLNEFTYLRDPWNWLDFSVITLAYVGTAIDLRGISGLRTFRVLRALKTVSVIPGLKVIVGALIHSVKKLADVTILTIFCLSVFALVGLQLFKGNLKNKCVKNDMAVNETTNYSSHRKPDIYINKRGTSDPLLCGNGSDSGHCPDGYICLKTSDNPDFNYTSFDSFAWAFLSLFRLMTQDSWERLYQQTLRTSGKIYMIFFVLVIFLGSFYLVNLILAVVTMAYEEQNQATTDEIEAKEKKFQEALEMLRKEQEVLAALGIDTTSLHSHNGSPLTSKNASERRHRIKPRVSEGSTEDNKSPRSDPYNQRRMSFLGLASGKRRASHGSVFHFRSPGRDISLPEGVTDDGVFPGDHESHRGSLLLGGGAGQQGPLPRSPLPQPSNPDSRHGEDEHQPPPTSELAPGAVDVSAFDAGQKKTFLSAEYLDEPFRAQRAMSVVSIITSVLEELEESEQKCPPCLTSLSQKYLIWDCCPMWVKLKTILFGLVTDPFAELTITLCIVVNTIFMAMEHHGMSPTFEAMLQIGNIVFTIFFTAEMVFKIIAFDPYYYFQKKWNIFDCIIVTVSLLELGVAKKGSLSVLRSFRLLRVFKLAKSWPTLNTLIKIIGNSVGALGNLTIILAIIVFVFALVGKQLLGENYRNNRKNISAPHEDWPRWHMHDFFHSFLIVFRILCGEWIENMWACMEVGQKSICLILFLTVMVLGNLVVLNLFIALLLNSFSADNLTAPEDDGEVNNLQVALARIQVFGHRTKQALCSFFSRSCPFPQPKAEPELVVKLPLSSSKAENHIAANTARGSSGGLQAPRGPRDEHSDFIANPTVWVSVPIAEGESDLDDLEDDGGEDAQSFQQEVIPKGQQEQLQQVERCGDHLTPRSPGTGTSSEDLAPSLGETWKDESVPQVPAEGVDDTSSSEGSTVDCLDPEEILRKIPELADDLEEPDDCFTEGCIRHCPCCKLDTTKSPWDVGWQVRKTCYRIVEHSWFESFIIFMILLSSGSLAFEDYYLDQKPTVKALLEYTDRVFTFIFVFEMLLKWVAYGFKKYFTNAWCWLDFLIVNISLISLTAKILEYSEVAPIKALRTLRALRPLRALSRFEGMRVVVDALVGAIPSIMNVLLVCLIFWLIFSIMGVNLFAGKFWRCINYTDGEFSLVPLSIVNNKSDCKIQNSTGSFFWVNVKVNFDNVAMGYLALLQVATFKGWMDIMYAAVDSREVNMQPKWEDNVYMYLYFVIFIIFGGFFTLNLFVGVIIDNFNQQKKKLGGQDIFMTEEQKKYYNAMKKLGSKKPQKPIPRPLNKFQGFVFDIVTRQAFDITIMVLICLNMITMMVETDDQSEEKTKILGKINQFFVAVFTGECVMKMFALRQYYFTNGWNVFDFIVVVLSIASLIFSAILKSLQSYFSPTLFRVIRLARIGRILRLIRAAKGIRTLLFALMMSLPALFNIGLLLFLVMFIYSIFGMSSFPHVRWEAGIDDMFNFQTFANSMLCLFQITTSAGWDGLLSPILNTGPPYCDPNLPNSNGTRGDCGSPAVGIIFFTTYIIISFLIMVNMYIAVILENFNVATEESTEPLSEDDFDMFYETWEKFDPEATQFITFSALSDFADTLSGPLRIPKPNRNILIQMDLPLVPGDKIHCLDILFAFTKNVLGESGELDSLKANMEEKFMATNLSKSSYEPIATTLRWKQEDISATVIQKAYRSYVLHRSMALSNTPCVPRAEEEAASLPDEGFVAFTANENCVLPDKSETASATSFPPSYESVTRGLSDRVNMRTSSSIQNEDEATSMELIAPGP

In the case of `COc1cc(Cl)ccc1Oc1cc(OC(F)(F)F)ccc1C(=O)Nc1cccc(S(N)(=O)=O)c1` [Compound 65, 2-(4-chloro-2-methoxyphenoxy)-N-(3-sulfamoylphenyl)-4-(trifluoromethoxy)benzamide], the IC50 (human Nav1.8) is reported as 22 nM and the “HLM: percent unchanged after 30 min” value [1] is reported as 101%.
For `NS(=O)(=O)c1cccc(NC(=O)c2ccc(Cl)cc2Oc2ccc(F)cc2Cl)c1` [Compound 8, 4-chloro-2-(2-chloro-4-fluorophenoxy)-N-(3-sulfamoylphenyl)benzamide], the IC50 (human Nav1.8) was 10 nM and the “HLM: percent unchanged after 30 min” value [1] was 108%.
Work on `CC(C)Oc1ccc(Oc2cc(Cl)ccc2C(=O)Nc2cccc(S(N)(=O)=O)c2)cc1` [Compound 87, 4-chloro-2-(4-isopropoxyphenoxy)-N-(3-sulfamoylphenyl)benzamide] yielded an IC50 (human Nav1.8) of 29 nM.
With `Cc1cc(C(=O)Nc2cccc(S(N)(=O)=O)c2)c(Oc2ccc(F)cc2)cc1Cl` [Compound 7, 4-chloro-2-(4-fluorophenoxy)-5-methyl-N-(3-sulfamoylphenyl)benzamide] the IC50 (human Nav1.8) was 12 nM and the “HLM: percent unchanged after 30 min” value [1] was 78%.
For `CC(C)Oc1ccc(Oc2cc(C(F)(F)F)ccc2C(=O)Nc2cccc(S(N)(=O)=O)c2)cc1` [Compound 53, 2-(4-isopropoxyphenoxy)-N-(3-sulfamoylphenyl)-4-(trifluoromethyl)benzamide], the IC50 (human Nav1.8) was 26 nM and the “HLM: percent unchanged after 30 min” value [1] was 71%.
For `NS(=O)(=O)c1cccc(NC(=O)c2cc(C(F)F)ccc2Oc2ccc(F)cc2Cl)c1` [Compound 40, 2-(2-chloro-4-fluorophenoxy)-5-(difluoromethyl)-N-(3-sulfamoylphenyl)benzamide], the IC50 (human Nav1.8) was 7 nM and the “HLM: percent unchanged after 30 min” value [1] was 107%.
In the case of `Cc1cc(F)ccc1Oc1ccc(F)cc1C(=O)Nc1cccc(S(N)(=O)=O)c1` [Compound 21, 5-fluoro-2-(4-fluoro-2-methylphenoxy)-N-(3-sulfamoylphenyl)benzamide], the IC50 (human Nav1.8) is reported as 23 nM and the “HLM: percent unchanged after 30 min” value [1] is reported as 96%.
For `NS(=O)(=O)c1cccc(NC(=O)c2ccc(OC(F)(F)F)cc2Oc2ccc(F)cc2)c1` [Compound 55, 2-(4-fluorophenoxy)-N-(3-sulfamoylphenyl)-4-(trifluoromethoxy)benzamide], the IC50 (human Nav1.8) was 9 nM and the “HLM: percent unchanged after 30 min” value [1] was 95%.
With `COc1cc(F)ccc1Oc1ccc(Cl)cc1C(=O)Nc1cccc(S(N)(=O)=O)c1` [Compound 16, 5-chloro-2-(4-fluoro-2-methoxyphenoxy)-N-(3-sulfamoylphenyl)benzamide] the IC50 (human Nav1.8) was 7 nM and the “HLM: percent unchanged after 30 min” value [1] was 86%.
For `COc1cc(F)ccc1Oc1cc(Cl)c(Cl)cc1C(=O)Nc1cccc(S(N)(=O)=O)c1` [Compound 77, 4,5-dichloro-2-(4-fluoro-2-methoxyphenoxy)-N-(3-sulfamoylphenyl)benzamide], the IC50 (human Nav1.8) was 1 nM and the “HLM: percent unchanged after 30 min” value [1] was 95%.
For `NS(=O)(=O)c1cccc(NC(=O)c2c(Oc3ccc(F)cc3Cl)cccc2C(F)(F)F)c1` [Compound 33, 2-(2-chloro-4-fluorophenoxy)-N-(3-sulfamoylphenyl)-6-(trifluoromethyl)benzamide], the IC50 (human Nav1.8) was 5 nM and the “HLM: percent unchanged after 30 min” value [1] was 102%.
For `NS(=O)(=O)c1cccc(NC(=O)c2ccc(OC(F)(F)F)cc2Oc2ccccc2OC(F)F)c1` [Compound 64, 2-(2-(difluoromethoxy)phenoxy)-N-(3-sulfamoylphenyl)-4-(trifluoromethoxy)benzamide], the IC50 (human Nav1.8) was 22 nM and the “HLM: percent unchanged after 30 min” value [1] was 96%.
For `Cc1cc(Cl)ccc1Oc1cccc(C(F)(F)F)c1C(=O)Nc1cccc(S(N)(=O)=O)c1` [Compound 58, 2-(4-chloro-2-methylphenoxy)-N-(3-sulfamoylphenyl)-6-(trifluoromethyl)benzamide], the IC50 (human Nav1.8) was 6 nM and the “HLM: percent unchanged after 30 min” value [1] was 107%.
In the case of `COc1ccc(Oc2cccc(C(F)(F)F)c2C(=O)Nc2cccc(S(N)(=O)=O)c2)c(Cl)c1` [Compound 75, 2-(2-chloro-4-methoxyphenoxy)-N-(3-sulfamoylphenyl)-6-(trifluoromethyl)benzamide], the IC50 (human Nav1.8) is reported as 5 nM and the “HLM: percent unchanged after 30 min” value [1] is reported as 62%.
In the case of `NS(=O)(=O)c1cccc(NC(=O)c2cc(C(F)(F)F)ccc2Oc2ccc(OC(F)(F)F)cc2)c1` [Compound 39, N-(3-sulfamoylphenyl)-2-(4-(trifluoromethoxy)phenoxy)-5-(trifluoromethyl)benzamide], the IC50 (human Nav1.8) is reported as 10 nM and the “HLM: percent unchanged after 30 min” value [1] is reported as 104%.
In the case of `NS(=O)(=O)c1cccc(NC(=O)c2cc(Cl)c(Cl)cc2Oc2ccc(F)cc2)c1` [Compound 78, 4,5-dichloro-2-(4-fluorophenoxy)-N-(3-sulfamoylphenyl)benzamide], the IC50 (human Nav1.8) is reported as 8 nM and the “HLM: percent unchanged after 30 min” value [1] is reported as 104%.
In the case of `Cc1cc(F)ccc1Oc1cc(Cl)cc(Cl)c1C(=O)Nc1cccc(S(N)(=O)=O)c1` [Compound 96, 2,4-dichloro-6-(4-fluoro-2-methylphenoxy)-N-(3-sulfamoylphenyl)benzamide], the IC50 (human Nav1.8) is reported as 1 nM and the “HLM: percent unchanged after 30 min” value [1] is reported as 96%.
With `COc1c(F)cccc1Oc1ccc(C(F)(F)F)cc1C(=O)Nc1cccc(S(N)(=O)=O)c1` [Compound 29, 2-(3-fluoro-2-methoxyphenoxy)-N-(3-sulfamoylphenyl)-5-(trifluoromethyl)benzamide] the IC50 (human Nav1.8) was 5 nM and the “HLM: percent unchanged after 30 min” value [1] was 100%.
In the case of `COc1ccc(Oc2ccc(C(F)(F)F)cc2C(=O)Nc2cccc(S(N)(=O)=O)c2)cc1` [Compound 22, 2-(4-methoxyphenoxy)-N-(3-sulfamoylphenyl)-5-(trifluoromethyl)benzamide], the IC50 (human Nav1.8) is reported as 28 nM and the “HLM: percent unchanged after 30 min” value [1] is reported as 88%.
With `Cc1c(F)cccc1Oc1cccc(C(F)(F)F)c1C(=O)Nc1cccc(S(N)(=O)=O)c1` [Compound 59, 2-(3-fluoro-2-methylphenoxy)-N-(3-sulfamoylphenyl)-6-(trifluoromethyl)benzamide] the IC50 (human Nav1.8) was 14 nM and the “HLM: percent unchanged after 30 min” value [1] was 66%.
In the case of `COc1ccc(Oc2cc(Cl)c(Cl)cc2C(=O)Nc2cccc(S(N)(=O)=O)c2)c(Cl)c1` [Compound 82, 4,5-dichloro-2-(2-chloro-4-methoxyphenoxy)-N-(3-sulfamoylphenyl)benzamide], the IC50 (human Nav1.8) is reported as 6 nM and the “HLM: percent unchanged after 30 min” value [1] is reported as 77%.
In the case of `COc1ccc(Oc2cc(Cl)c(Cl)cc2C(=O)Nc2cccc(S(N)(=O)=O)c2)c(OC)c1` [Compound 76, 4,5-dichloro-2-(2,4-dimethoxyphenoxy)-N-(3-sulfamoylphenyl)benzamide], the “HLM: percent unchanged after 30 min” value [1] is reported as 58%.
Compound `COc1ccc(Oc2cc(C(F)(F)F)cc(C3CC3)c2C(=O)Nc2cccc(S(N)(=O)=O)c2)cc1F` [Compound 100, 2-cyclopropyl-6-(3-fluoro-4-methoxyphenoxy)-N-(3-sulfamoylphenyl)-4-(trifluoromethyl)benzamide] has an IC50 (human Nav1.8) of 18 nM.
Work on `COc1cc(Cl)ccc1Oc1cc(Cl)ccc1C(=O)Nc1cccc(S(N)(=O)=O)c1` [Compound 85, 4-chloro-2-(4-chloro-2-methoxyphenoxy)-N-(3-sulfamoylphenyl)benzamide] yielded an IC50 (human Nav1.8) of 15 nM.
